Test results published in US8741944B2, “Anti-infective agents against intracellular pathogens” (priority 2007, dated 2014).

How the values were obtained:
SNB-19 (CNS Cancer) = assay: NCI DTP tumor cell line screen (SRB), SNB-19
Protocol: (§1) For a typical screening experiment, cells are inoculated into 96 well microtiter plates in 100 μL at plating densities ranging from 5,000 to 40,000 cells/well depending on the doubling time of individual cell lines. After cell inoculation, the microtiter plates are incubated at 37° C., 5% CO2, 95% air and 100% relative humidity for 24 h prior to addition of experimental drugs.
(§2) After 24 h, two plates of each cell line are fixed in situ with TCA, to represent a measurement of the cell population for each cell line at the time of drug addition (Tz). Experimental drugs are solubilized in dimethyl sulfoxide at 400-fold the desired final maximum test concentration and stored frozen prior to use. At the time of drug addition, an aliquot of frozen concentrate is thawed and diluted to twice the desired final maximum test concentration with complete medium containing 50 μg/ml gentamicin. Additional four, 10-fold or ½ log serial dilutions are made to provide a total of five drug concentrations plus control. Aliquots of 100 μl of these different drug dilutions are added to the appropriate microtiter wells already containing 100 μl of medium, resulting in the required final drug concentrations.
(§3) Following drug addition, the plates are incubated for an additional 48 h at 37° C., 5% CO2, 95% air, and 100% relative humidity. For adherent cells, the assay is terminated by the addition of cold TCA. Cells are fixed in situ by the gentle addition of 50 μl of cold 50% (w/v) TCA (final concentration, 10% TCA) and incubated for 60 minutes at 4° C. The supernatant is discarded, and the plates are washed five times with tap water and air dried. Sulforhodamine B (SRB) solution (1001) at 0.4% (w/v) in 1% acetic acid is added to each well, and plates are incubated for 10 minutes at room temperature. After staining, unbound dye is removed by washing five times with 1% acetic acid and the plates are air dried. Bound stain is subsequently solubilized with 10 mM trizma base, and the absorbance is read on an automated plate reader at a wavelength of 515 nm. For suspension cells, the methodology is the same except that the assay is terminated by fixing settled cells at the bottom of the wells by gently adding 50 μl of 80% TCA (final concentration, 16% TCA). Using the seven absorbance measurements [time zero, (Tz), control growth, (C), and test growth in the presence of drug at the five concentration levels (Ti)], the percentage growth is calculated at each of the drug concentrations levels. Percentage growth inhibition is calculated as: [(Ti−Tz)/(C−Tz)]×100 for concentrations for which Ti>/=Tz [(Ti−Tz)/Tz]×100 for concentrations for which Ti<Tz
(§4) Three dose response parameters are calculated for each experimental agent. […] The drug concentration resulting in total growth inhibition (TGI) is calculated from Ti=Tz. […] Values are calculated for each of these three parameters if the level of activity is reached; however, if the effect is not reached or is exceeded, the value for that parameter is expressed as greater or less than the maximum or minimum concentration tested.

BT-549 (Breast Cancer) = assay: NCI DTP tumor cell line screen (SRB), BT-549
Protocol: as §1, §2, §3, §4

`NCC(=O)Nc1ccc(-n2nc(C(F)(F)F)cc2-c2ccc3c(ccc4ccccc43)c2)cc1` [Compound 70, 2-Amino-N-{4-[5-(2-phenanthrenyl)-3-(trifluoromethyl)-1H-pyrazol-1-yl]-phenyl}-acetamide] was tested, and the TGI (SNB-19 (CNS Cancer)) was 3.15E−06, the “Mean Optical Densities” value (SNB-19 (CNS Cancer); Log10 Concentration −4.0) was 0.324 and the “Mean Optical Densities” value (SNB-19 (CNS Cancer); Log10 Concentration −5.0) was 0.219. For the same compound, the “Percent Growth” value (SNB-19 (CNS Cancer); Log10 Concentration −5.0) was −59%, the “Mean Optical Densities” value (SNB-19 (CNS Cancer); Log10 Concentration −6.0) was 1.230 and the “Percent Growth” value (SNB-19 (CNS Cancer); Log10 Concentration −6.0) was 59%. For the same compound, the “Mean Optical Densities” value (SNB-19 (CNS Cancer); Log10 Concentration −7.0) was 1.655, the “Percent Growth” value (SNB-19 (CNS Cancer); Log10 Concentration −7.0) was 94% and the “Mean Optical Densities” value (SNB-19 (CNS Cancer); Log10 Concentration −8.0) was 1.562. For the same compound, the “Percent Growth” value (SNB-19 (CNS Cancer); Log10 Concentration −8.0) was 87%, the TGI (BT-549 (Breast Cancer)) was 2.95E−06 and the “Mean Optical Densities” value (BT-549 (Breast Cancer); Log10 Concentration −5.0) was 0.143. For the same compound, the “Percent Growth” value (BT-549 (Breast Cancer); Log10 Concentration −5.0) was −71%, the “Mean Optical Densities” value (BT-549 (Breast Cancer); Log10 Concentration −6.0) was 0.785 and the “Percent Growth” value (BT-549 (Breast Cancer); Log10 Concentration −6.0) was 63%. For the same compound, the “Mean Optical Densities” value (BT-549 (Breast Cancer); Log10 Concentration −7.0) was 0.891, the “Percent Growth” value (BT-549 (Breast Cancer); Log10 Concentration −7.0) was 86% and the “Mean Optical Densities” value (BT-549 (Breast Cancer); Log10 Concentration −8.0) was 0.912. For the same compound, the “Percent Growth” value (BT-549 (Breast Cancer); Log10 Concentration −8.0) was 90%.
